Assays:
Assay in all cases: Histone peptide microarray
Type in all cases: binding, human
Settings in all cases: sheet "Array Heatmap"
MORC3 (CW) = system: MORC3 (CW)
In short: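 Steps: express and purify GST-tagged PHD reader; incubate 0.5 μM protein on a peptide microarray (293 histone peptides, single or combined PTMs) following an optimized protocol; average signal across 4 replicates.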

BAZ2B = system: BAZ2B
In short: (§1)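 Binding of recombinant GST-fused PHD readers (0.5 μM) is detected on an array of 293 histone peptides, modified singly or in combination. An optimized array protocol is followed, and each intensity is the average of quadruplicate measurements with standard deviation.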

MLL5 = system: MLL5
In short: as §1

PHF2 = system: PHF2
In short: as §1

ING4 = system: ING4
In short: as §1

PHF13 = system: PHF13
In short: as §1

CHD4 (PPCC) = system: CHD4 (PPCC)
In short: as §1

DIDO1 = system: DIDO1
In short: as §1

CHD5 (PCC) = system: CHD5 (PCC)
In short: as §1

CHD5 (PPCC) = system: CHD5 (PPCC)
In short: as §1

ING1 = system: ING1
In short: as §1

ING5 = system: ING5
In short: as §1

KDM4C (TTP) = system: KDM4C (TTP)
In short: as §1

BPTF (PB) = system: BPTF (PB)
In short: as §1

PHF21A = system: PHF21A
In short: as §1

RAG2 = system: RAG2
In short: as §1

ING2 = system: ING2
In short: as §1

TAF3 = system: TAF3
In short: as §1

TRIM66 (PB) = system: TRIM66 (PB)
In short: as §1

PHF8 = system: PHF8
In short: as §1

KDM5B (1) = system: KDM5B (1)
In short: as §1

ING3 = system: ING3
In short: as §1

PHRF1 (RP) = system: PHRF1 (RP)
In short: as §1

SP140L = system: SP140L
In short: as §1

DPF2 (PPC2W2) = system: DPF2 (PPC2W2)
In short: as §1

KDM5B (3) = system: KDM5B (3)
In short: as §1

PHF23 = system: PHF23
In short: as §1

KDM5A (3) = system: KDM5A (3)
In short: as §1

AIRE (PP) = system: AIRE (PP)
In short: as §1

KDM7A = system: KDM7A
In short: as §1

KDM5A (1) = system: KDM5A (1)
In short: as §1

[1] = GST-tagged reader, histone peptide array, total n = 4

Substance: H2BK5me1: H2B 1-24 [Peptide H2BK5me1]
- Array Heatmap value (peptide array signal) (MORC3 (CW); MORC3 (CW), each array performed twice, total n = 4): 0.347
- Array Heatmap value (peptide array signal) (BAZ2B; BAZ2B, each array performed twice, total n = 4): 0.4388
- Array Heatmap value (peptide array signal) (MLL5; MLL5, each array performed twice, total n = 4): 0.5838
- Array Heatmap value (peptide array signal) (PHF2; PHF2, each array performed twice, total n = 4): 0.5195
- Array Heatmap value (peptide array signal) (ING4; ING4, each array performed twice, total n = 4): 0.4312
- Array Heatmap value (peptide array signal) (PHF13; PHF13, each array performed twice, total n = 4): 0.5791
- Array Heatmap value (peptide array signal) (CHD4 (PPCC); CHD4 (PPCC), each array performed twice, total n = 4): 0.5519
- Array Heatmap value (peptide array signal) (DIDO1; DIDO1, each array performed twice, total n = 4): 0.7058
- Array Heatmap value (peptide array signal) (CHD5 (PCC); CHD5 (PCC), each array performed twice, total n = 4): 0.7328
- Array Heatmap value (peptide array signal) (CHD5 (PPCC); CHD5 (PPCC), each array performed twice, total n = 4): 0.5218
- Array Heatmap value (peptide array signal) (ING1; ING1, each array performed twice, total n = 4): 0.5552
- Array Heatmap value (peptide array signal) (ING5; ING5, each array performed twice, total n = 4): 0.3396
- Array Heatmap value (peptide array signal) (KDM4C (TTP); KDM4C (TTP), each array performed twice, total n = 4): 0.4441
- Array Heatmap value (peptide array signal) (BPTF (PB); BPTF (PB), each array performed twice, total n = 4): 0.3333
- Array Heatmap value (peptide array signal) (PHF21A; PHF21A, each array performed twice, total n = 4): 0.4511
- Array Heatmap value (peptide array signal) (RAG2; RAG2, each array performed twice, total n = 4): 0.242
- Array Heatmap value (peptide array signal) (ING2; ING2, each array performed twice, total n = 4): 0.6238
- Array Heatmap value (peptide array signal) (TAF3; TAF3, each array performed twice, total n = 4): 0.2612
- Array Heatmap value (peptide array signal) (TRIM66 (PB); TRIM66 (PB), each array performed twice, total n = 4): 0.6209
- Array Heatmap value (peptide array signal) (PHF8; PHF8, each array performed twice, total n = 4): 0.341
- Array Heatmap value (peptide array signal) (KDM5B (1); KDM5B (1), each array performed twice, total n = 4): 0.6308
- Array Heatmap value (peptide array signal) (ING3; ING3, each array performed twice, total n = 4): 0.4514
- Array Heatmap value (peptide array signal) (PHRF1 (RP); PHRF1 (RP), each array performed twice, total n = 4): 0.4244
- Array Heatmap value (peptide array signal) (SP140L; SP140L, each array performed twice, total n = 4): 0.3691
- Array Heatmap value (peptide array signal) (DPF2 (PPC2W2); DPF2 (PPC2W2), each array performed twice, total n = 4): 0.6733
- Array Heatmap value (peptide array signal) (KDM5B (3); KDM5B (3), each array performed twice, total n = 4): 0.4454
- Array Heatmap value (peptide array signal) (PHF23; PHF23, each array performed twice, total n = 4): 0.5121
- Array Heatmap value (peptide array signal) (KDM5A (3); KDM5A (3), each array performed twice, total n = 4): 0.4387
- Array Heatmap value (peptide array signal) (AIRE (PP); AIRE (PP), each array performed twice, total n = 4): 0.3816
- Array Heatmap value (peptide array signal) (KDM7A; KDM7A, each array performed twice, total n = 4): 0.316
- Array Heatmap value (peptide array signal) (KDM5A (1); KDM5A (1), each array performed twice, total n = 4): 0.4431

Substance: H3K14me2: H3 1-20 [Peptide H3K14me2]
- Array Heatmap signal, MORC3 (CW) (MORC3 (CW); [1]): 0.4726
- Array Heatmap signal, BAZ2B (BAZ2B; [1]): 0.5017
- Array Heatmap signal, MLL5 (MLL5; [1]): 0.5639
- Array Heatmap signal, PHF2 (PHF2; [1]): 0.4838
- Array Heatmap signal, ING4 (ING4; [1]): 0.4752
- Array Heatmap signal, PHF13 (PHF13; [1]): 0.6476
- Array Heatmap signal, CHD4 (PPCC) (CHD4 (PPCC); [1]): 0.6389
- Array Heatmap signal, DIDO1 (DIDO1; [1]): 0.7549
- Array Heatmap signal, CHD5 (PCC) (CHD5 (PCC); [1]): 0.8497
- Array Heatmap signal, CHD5 (PPCC) (CHD5 (PPCC); [1]): 0.5851
- Array Heatmap signal, ING1 (ING1; [1]): 0.5677
- Array Heatmap signal, ING5 (ING5; [1]): 0.3792
- Array Heatmap signal, KDM4C (TTP) (KDM4C (TTP); [1]): 0.5414
- Array Heatmap signal, BPTF (PB) (BPTF (PB); [1]): 0.3583
- Array Heatmap signal, PHF21A (PHF21A; [1]): 0.4799
- Array Heatmap signal, RAG2 (RAG2; [1]): 0.2574
- Array Heatmap signal, ING2 (ING2; [1]): 0.6018
- Array Heatmap signal, TAF3 (TAF3; [1]): 0.2982
- Array Heatmap signal, TRIM66 (PB) (TRIM66 (PB); [1]): 0.6527
- Array Heatmap signal, PHF8 (PHF8; [1]): 0.3636
- Array Heatmap signal, KDM5B (1) (KDM5B (1); [1]): 0.6811
- Array Heatmap signal, ING3 (ING3; [1]): 0.5043
- Array Heatmap signal, PHRF1 (RP) (PHRF1 (RP); [1]): 0.7403
- Array Heatmap signal, SP140L (SP140L; [1]): 0.3561
- Array Heatmap signal, DPF2 (PPC2W2) (DPF2 (PPC2W2); [1]): 0.7618
- Array Heatmap signal, KDM5B (3) (KDM5B (3); [1]): 0.5212
- Array Heatmap signal, PHF23 (PHF23; [1]): 0.5616
- Array Heatmap signal, KDM5A (3) (KDM5A (3); [1]): 0.5469
- Array Heatmap signal, AIRE (PP) (AIRE (PP); [1]): 0.5905
- Array Heatmap signal, KDM7A (KDM7A; [1]): 0.4126
- Array Heatmap signal, KDM5A (1) (KDM5A (1); [1]): 0.5072

Substance: H3R8me2s + K9me2: H3 1-20
- Array Heatmap signal, MORC3 (CW) (MORC3 (CW); GST-tagged MORC3 (CW), arrays performed twice, total replicate number n = 4): 0.398
- Array Heatmap signal, BAZ2B (BAZ2B; GST-tagged BAZ2B, arrays performed twice, total replicate number n = 4): 0.5059
- Array Heatmap signal, MLL5 (MLL5; GST-tagged MLL5, arrays performed twice, total replicate number n = 4): 0.5188
- Array Heatmap signal, PHF2 (PHF2; GST-tagged PHF2, arrays performed twice, total replicate number n = 4): 0.4235
- Array Heatmap signal, ING4 (ING4; GST-tagged ING4, arrays performed twice, total replicate number n = 4): 0.4841
- Array Heatmap signal, PHF13 (PHF13; GST-tagged PHF13, arrays performed twice, total replicate number n = 4): 0.6345
- Array Heatmap signal, CHD4 (PPCC) (CHD4 (PPCC); GST-tagged CHD4 (PPCC), arrays performed twice, total replicate number n = 4): 0.5754
- Array Heatmap signal, DIDO1 (DIDO1; GST-tagged DIDO1, arrays performed twice, total replicate number n = 4): 0.6168
- Array Heatmap signal, CHD5 (PCC) (CHD5 (PCC); GST-tagged CHD5 (PCC), arrays performed twice, total replicate number n = 4): 0.7949
- Array Heatmap signal, CHD5 (PPCC) (CHD5 (PPCC); GST-tagged CHD5 (PPCC), arrays performed twice, total replicate number n = 4): 0.5952
- Array Heatmap signal, ING1 (ING1; GST-tagged ING1, arrays performed twice, total replicate number n = 4): 0.5182
- Array Heatmap signal, ING5 (ING5; GST-tagged ING5, arrays performed twice, total replicate number n = 4): 0.3835
- Array Heatmap signal, KDM4C (TTP) (KDM4C (TTP); GST-tagged KDM4C (TTP), arrays performed twice, total replicate number n = 4): 0.5379
- Array Heatmap signal, BPTF (PB) (BPTF (PB); GST-tagged BPTF (PB), arrays performed twice, total replicate number n = 4): 0.3651
- Array Heatmap signal, PHF21A (PHF21A; GST-tagged PHF21A, arrays performed twice, total replicate number n = 4): 0.4814
- Array Heatmap signal, RAG2 (RAG2; GST-tagged RAG2, arrays performed twice, total replicate number n = 4): 0.2593
- Array Heatmap signal, ING2 (ING2; GST-tagged ING2, arrays performed twice, total replicate number n = 4): 0.6129
- Array Heatmap signal, TAF3 (TAF3; GST-tagged TAF3, arrays performed twice, total replicate number n = 4): 0.2872
- Array Heatmap signal, TRIM66 (PB) (TRIM66 (PB); GST-tagged TRIM66 (PB), arrays performed twice, total replicate number n = 4): 0.5924
- Array Heatmap signal, PHF8 (PHF8; GST-tagged PHF8, arrays performed twice, total replicate number n = 4): 0.3655
- Array Heatmap signal, KDM5B (1) (KDM5B (1); GST-tagged KDM5B (1), arrays performed twice, total replicate number n = 4): 0.6818
- Array Heatmap signal, ING3 (ING3; GST-tagged ING3, arrays performed twice, total replicate number n = 4): 0.4823
- Array Heatmap signal, PHRF1 (RP) (PHRF1 (RP); GST-tagged PHRF1 (RP), arrays performed twice, total replicate number n = 4): 0.5504
- Array Heatmap signal, SP140L (SP140L; GST-tagged SP140L, arrays performed twice, total replicate number n = 4): 0.3733
- Array Heatmap signal, DPF2 (PPC2W2) (DPF2 (PPC2W2); GST-tagged DPF2 (PPC2W2), arrays performed twice, total replicate number n = 4): 0.6724
- Array Heatmap signal, KDM5B (3) (KDM5B (3); GST-tagged KDM5B (3), arrays performed twice, total replicate number n = 4): 0.5187
- Array Heatmap signal, PHF23 (PHF23; GST-tagged PHF23, arrays performed twice, total replicate number n = 4): 0.5163
- Array Heatmap signal, KDM5A (3) (KDM5A (3); GST-tagged KDM5A (3), arrays performed twice, total replicate number n = 4): 0.4844
- Array Heatmap signal, AIRE (PP) (AIRE (PP); GST-tagged AIRE (PP), arrays performed twice, total replicate number n = 4): 0.5603
- Array Heatmap signal, KDM7A (KDM7A; GST-tagged KDM7A, arrays performed twice, total replicate number n = 4): 0.4179
- Array Heatmap signal, KDM5A (1) (KDM5A (1); GST-tagged KDM5A (1), arrays performed twice, total replicate number n = 4): 0.5094

Source: paper PMC6979384, “Characterization of the plant homeodomain (PHD) reader family for their histone tail interactions” (Epigenetics & Chromatin, 2020)
